Structures are written as SMILES.

For this experiment, the system named is A549 cells. The experiment can be described thus: Antiproliferative effect by MTT assay. The format is cell-based, human. The settings on record: 48 h, G Rh2 6.4 μg/mL. Here is the method:
The human NSCLC cell line, A549, was cultured in RPMI 1640 medium containing 10% FBS at 37 °C and 5% CO2 in an incubator with saturated humidity. The medium was replaced every 2 days and the cells were passaged at the split ratio of 1:8 every 5–7 days. Cells grown to the logarithmic growth phase were harvested for further experiments.
The A549 cells were seeded in a 96-well plate at 5 × 10^3 cells/well and incubated for 24 h. The medium was then discarded and each well received 100 μL of different concentrations of CG-M, CG-Mblank, celastrol + G Rh2, celastrol and G Rh2. After 48 h of incubation, 100 μL of 0.5 mg/mL MTT in phosphate-buffered saline (PBS) was added to each well, followed by 4 h of incubation in the dark. […] The plate was shaken at low speed for 3 min, and the absorbance at 570 nm was measured using a microplate reader to calculate cell viability. Cell viability (%) = Absorbance of the drug treatment group (Adrug)/Absorbance of the control group (Acontrol) × 100. The IC50 was calculated by GraphPad prism 6.0 software (GraphPad Software Inc., San Diego, CA). The combined index (CI) was calculated with the following formula: CI = IC50 of celastrol in combination group/IC50 of celastrol + IC50 of G Rh2 in combination group/IC50 of G Rh2 (Qu et al., [2017]; Wu et al., [2017]), which represents a synergistic antitumor effect if the value is less than 1.

Take `CC(C)=CCC[C@](C)(O)[C@H]1CC[C@]2(C)[C@@H]1[C@H](O)C[C@@H]1[C@@]3(C)CC[C@H](O[C@@H]4O[C@H](CO)[C@@H](O)[C@H](O)[C@H]4O)C(C)(C)[C@@H]3CC[C@]12C` [G Rh2, ginsenoside Rh2]: the “survival rate of cells” value worked out at 67.5%.

Source of the values: PMC8241176, “Preliminary study on fabrication, characterization and synergistic anti-lung cancer effects of self-assembled micelles of covalently conjugated celastrol–polyethylene glycol–ginsenoside Rh2” (Drug Delivery, 2017).
